# Read-outs that look alike come from different tables or passages of the source.
# Experiments:
# [1] = tested on: blood pressure of anesthesized dogs; test: Effect on blood pressure of anesthesized dogs; format: in vivo, dog (mongrel); settings: for average rate of blood pressure decrease: within 6 hours
# Experimental: Changes in blood pressure were measured for 6 hours after the administration with a multi-purpose polygraph RM-85 made by NIHON KODEN.
# The observed effect was a blood pressure decrease immediately after administration which came up nearly to plateau 2 hours after for 1 mg/kg, and 3 hours after for 3 mg/kg and 9 mg/kg, and in all cases remained on the plateau for 6 hours after that. The DB20 value obtained from the dose-response curve of FIG. 6 was 2 mg/kg.
# blood pressure of SHR = test: Antihypertensive effect by repeated administration, SHR; format: in vivo, rat (spontaneously hypertensive rats
# Experimental: The effect was determined through a direct cannulation by using male SHRs aged 25 to 30 weeks and weighing about 300 g. […] Blood pressures were measured twice a day, just before and 4 hours after the administration with blood pressure recorder 8002 made by W+W Electronic.
# in vivo = format: in vivo, rat (SD (SPF)); settings: rat, in vivo; oral sub-acute, rats; read-out: ineffective dose
# Experimental: (§1) All the rats were observed daily and general symptoms noted. Weight was measured daily, average food-intake once every three days, and average water-intake once every two days.
# rats [2] = test: in vivo; format: in vivo, rat (SD (SPF))
# Experimental: as §1
# rats [3] = tested on: rats
# Text: Rats were sacrificed under anesthesia with ether. After observation of gross appearance of all the organs, extraction and weighing were made on spleen, lung, liver, adrenal, heart, thymus, kidney, testicles, hypophysis and thyroid. In addition to the above organs, femoral bone marrow, lymph node, stomach, intestine, pancreas, urinary bladder, prostate and central nervous system were removed and fixed in 10% formaline solution.
# central nervous system [4] = test: Behavior-pharmacological studies, central nervous system depressing effect; parameters: species or system mouse (dd-strain); settings: mouse, in vivo
# Text: Effects on central nervous system were studied as follows: […]
# [5] = Excretion into bile after venous injection; format: in vivo; settings: rabbit, iv, within 6 hours, of amount administered
# Experimental: From the Figure it is recognized that an amount as small as 0.3 to 0.5% of the administered MR is discharged into bile within 6 hours after administration.
# Solubility = format: physicochemical
# rat = settings: oral
# rats [6] = tested on: rats; remark: listed apart in the source
# Experimental: The rate were bred in individual cages under the following conditions: temperature, 23°±2° C.; relative humidity, 55±5%; free taking of solid food (CE-2, CLEA Japan, Inc.) and tap water.
# Volume of the medicine solution for one administration was dicided to be 1 ml per 100 g of weight, and the dose was administered once a day, 6 times a week over 5 weeks. The control group received the same volume of 0.2% carboxymethyl cellulose solution.
# After the final administration followed by 24 hours fast, the following analyses were made: Glucose (by o-toluidine-boric acid method); Total Protein (by biurett method); Blood Uria Nitrogen (diacetyl monoxime method); GOT and GPT Activities (Reitman-Frankel method); Alkaline Phosphatase Activity (Kind-King method); and Sodium and Potassium Content (flame-photometer).
# [7] = rat, in vivo, po
# [8] = in vivo; cited from earlier work
# central nervous system [9] = settings: in vivo; cited from earlier work
# serotonin in Brain = settings: in vivo; cited from earlier work
# [10] = tested on: noradrenaline in heart and adrenals; settings: in vivo; cited from earlier work
# [11] = Excretion into urine after oral administration; settings: rabbit, 10 mg/kg
# Text: Urine was collected with urine bladder catheter for rabbits and metabolic cages for rats.
smiles,measurement,setting,value
"COC(=O)[C@H]1[C@H]2C[C@@H]3c4[nH]c5cc(OC)ccc5c4CCN3C[C@H]2C[C@@H](O)[C@@H]1OC [MR, methylreserpate]",time to plateau,[1]; 1 mg/kg intravenous,2 h
same,time to plateau,[1]; 3 mg/kg intravenous,3 h
same,average rate of blood pressure decrease,[1]; 3 mg/kg intravenous,22.3%
same,time to plateau,[1]; 9 mg/kg intravenous,3 h
same,average rate of blood pressure decrease,[1]; 9 mg/kg intravenous,35.1%
same,duration of plateau,"[1]; 1, 3 and 9 mg/kg intravenous",6 h
same,ED (DB20),"[1]; Canis lupus familiaris, 6 h, intravenous, from dose-response curve of FIG. 6",2 mg/kg
same,blood pressure 24 hours after administration,"blood pressure of SHR; oral, once a day over 2 weeks",had returned almost to the original level
same,disappearance of effect compared with RSP,"blood pressure of SHR; rat, in vivo",disappears more rapidly than that of RSP
same,tolerance,blood pressure of SHR; repeated administration over 2 weeks,hardly giving tolerance
same,long lasting effect,blood pressure of SHR; single and repeated administration to SHRs,no long lasting effect
same,NOAEL,in vivo,12.5 mg/kg
same,side effects,rats [2]; only at the higher doses,"blepharoptosis, leukopenia, increase of urine volume, atrophy of hematopoietic organs, cortial hypertrophy of adrenal and degeneration of liver cells (in dead rats)"
same,food-intake,"rats [2]; rat, in vivo",No difference
same,general symptoms,"rats [2]; rat, in vivo","blepharoptosis, roughening of fur and dirtiness of public region"
same,"general symptoms, additional","rats [2]; rat, in vivo","reduction of body weight, bloody cojunctival discharge, and a decrease of limb-skin temperature"
same,Absolute weight Brain,rats [3]; 25.0 mg/kg,2.26 ± 0.04 g
same,Absolute weight Hypophysis,rats [3]; 25.0 mg/kg,11.98 ± 0.44 mg
same,Absolute weight Kidney,rats [3]; 25.0 mg/kg,1.20 ± 0.04 g
same,Absolute weight Liver,rats [3]; 25.0 mg/kg,10.00 ± 0.47 g
same,Absolute weight Lung,rats [3]; 25.0 mg/kg,2.35 ± 0.05 g
same,Absolute weight Spleen,rats [3]; 25.0 mg/kg,0.71 ± 0.03 g
same,Absolute weight Thymus,rats [3]; 25.0 mg/kg,0.54 ± 0.02 g
same,Absolute weight Thyroid,rats [3]; 25.0 mg/kg,10.07 ± 0.55 mg
same,Absolute weight Salivary,"rats [3]; 25.0 mg/kg, P<0.01",0.26 ± 0.01 g
same,Absolute weight Brain,rats [3]; 50.0 mg/kg,2.26 ± 0.03 g
same,Absolute weight Hypophysis,rats [3]; 50.0 mg/kg,11.93 ± 0.48 mg
same,Absolute weight Kidney,rats [3]; 50.0 mg/kg,1.19 ± 0.03 g
same,Absolute weight Liver,rats [3]; 50.0 mg/kg,10.16 ± 0.33 g
same,Absolute weight Lung,rats [3]; 50.0 mg/kg,2.26 ± 0.10 g
same,Absolute weight Spleen,rats [3]; 50.0 mg/kg,0.73 ± 0.03 g
same,Absolute weight Thymus,rats [3]; 50.0 mg/kg,0.58 ± 0.05 g
same,Absolute weight Thyroid,rats [3]; 50.0 mg/kg,8.55 ± 0.50 mg
same,Absolute weight Salivary,"rats [3]; 50.0 mg/kg, P<0.05",0.26 ± 0.01 g
same,absolute weight of other organs,rats [3]; 100 mg/kg,decrease in weight of the other organs
same,Absolute weight Hypophysis,rats [3]; 100.0 mg/kg,10.46 ± 0.17 mg
same,Absolute weight Spleen,rats [3]; 100.0 mg/kg,0.56 ± 0.03 g
same,Absolute weight Thyroid,rats [3]; 100.0 mg/kg,7.86 ± 0.38 mg
same,Absolute weight Kidney,"rats [3]; 100.0 mg/kg, P<0.01",0.89 ± 0.03 g
same,Absolute weight Salivary,"rats [3]; 100.0 mg/kg, P<0.01",0.21 ± 0.01 g
same,Absolute weight Thymus,"rats [3]; 100.0 mg/kg, P<0.01",0.39 ± 0.03 g
same,Absolute weight Brain,"rats [3]; 100.0 mg/kg, P<0.05",2.17 ± 0.04 g
same,Absolute weight Liver,"rats [3]; 100.0 mg/kg, P<0.05",7.55 ± 0.32 g
same,Absolute weight Lung,"rats [3]; 100.0 mg/kg, P<0.05",2.10 ± 0.06 g
same,absolute adrenal weight,rats [3]; 25 and 50 mg/kg groups,weight increase of adrenal
same,Absolute weight Brain,"rats [3]; rat, in vivo",2.28±0.03
same,Absolute weight Hypophysis,"rats [3]; rat, in vivo",10.60±0.41
same,Absolute weight Kidney,"rats [3]; rat, in vivo",1.17±0.05
same,Absolute weight Liver,"rats [3]; rat, in vivo",10.18±0.50
same,Absolute weight Lung,"rats [3]; rat, in vivo",1.32±0.12
same,Absolute weight Salivary,"rats [3]; rat, in vivo",0.27±0.01
same,Absolute weight Spleen,"rats [3]; rat, in vivo",0.69±0.03
same,Absolute weight Thymus,"rats [3]; rat, in vivo",0.63±0.04
same,Absolute weight Thyroid,"rats [3]; rat, in vivo",8.59±0.50
same,gross appearance of organs,"rats [3]; rat, in vivo",no noteworthy change
same,central nervous system depressing effect compared with RSP,central nervous system [4],weaker than that of RSP
same,dose excreted at 6 h,[5],0.3 to 0.5%
same,solubility in chloroform,Solubility,easily soluble
same,solubility in ethanol,Solubility,easily soluble
same,solubility in methanol,Solubility,easily soluble
same,solubility in water,Solubility,hardly soluble
same,LD50 as multiple of clinical dosage of RCN,rat,"about 24,000 times"
same,ALP,"rats [6]; 25.0 mg/kg, 30 days",17.0±0.93 K.A.U.
same,BUN,"rats [6]; 25.0 mg/kg, 30 days",15.7 ± 0.77 mg/dL
same,GOT,"rats [6]; 25.0 mg/kg, 30 days",92.2±8.74 K.U.
same,Glucose,"rats [6]; 25.0 mg/kg, 30 days",155.4 ± 6.06 mg/dL
same,Total Protein,"rats [6]; 25.0 mg/kg, 30 days",6.65 ± 0.08 g/dL
same,ALP,"rats [6]; 50.0 mg/kg, 30 days",18.7±1.39 K.A.U.
same,Total Protein,"rats [6]; 50.0 mg/kg, 30 days",6.76 ± 0.18 g/dL
same,BUN,"rats [6]; 50.0 mg/kg, 30 days, P<0.05",17.2 ± 0.56 mg/dL
same,GOT,"rats [6]; 50.0 mg/kg, 30 days, P<0.05",117.1±10.48 K.U.
same,Glucose,"rats [6]; 50.0 mg/kg, 30 days, P<0.05",113.7 ± 5.25 mg/dL
same,ALP,"rats [6]; 100.0 mg/kg, 30 days",22.7±2.91 K.A.U.
same,Total Protein,"rats [6]; 100.0 mg/kg, 30 days",6.57 ± 0.28 g/dL
same,BUN,"rats [6]; 100.0 mg/kg, 30 days, P<0.05",17.5 ± 1.01 mg/dL
same,GOT,"rats [6]; 100.0 mg/kg, 30 days, P<0.05",114.9±7.02 K.U.
same,Glucose,"rats [6]; 100.0 mg/kg, 30 days, P<0.05",100.5 ± 8.60 mg/dL
same,serum glucose,rats [6]; 50 and 100 mg/kg groups,decrease of glucose value
same,other serum biochemistry,rats [6]; all determinations other than glucose,all within the scope of normal values
same,ALP,"rats [6]; rat, in vivo",18.8±10.82
same,BUN,"rats [6]; rat, in vivo",14.6±0.35
same,GOT,"rats [6]; rat, in vivo",80.4±7.55
same,Glucose,"rats [6]; rat, in vivo",149.3±3.36
same,Total Protein,"rats [6]; rat, in vivo",7.06±0.09
same,metabolism,[7],hardly metabolized
same,antihypertensive effect,[8],no antihypertensive effect
same,inhibitory action of central nervous system,central nervous system [9],less than that of RSP
same,serotonin in Brain,serotonin in Brain,no decrease of serotonin in Brain
same,noradrenaline in heart and adrenals,[10],slight decrease of noradrenaline in heart and adrenals
same,dose excreted at 48 h,[11],10 to 15%
